ChEMBL document CHEMBL1201862, “PubChem BioAssay data set” (2004)
Activity calls are given as the source filed them.

Assays:
[1] = biological target: Peroxisome proliferator-activated receptor gamma/Nuclear receptor coactivator 1 (Homo sapiens, UniProt P37231); assay: TR-FRET dose response biochemical High Throughput Screening assay for agonists of the steroid receptor coactivator 1 (SRC-1) recruitment by the peroxisome proliferator-activated receptor gamma (PPAR gamma): non-selective agonists. [Related pubchem assays (depositor defined):AID1300, AID1808, AID504735, AID631]; type: protein assay
[2] = biological target: Peroxisome proliferator-activated receptor gamma/Nuclear receptor coactivator 3 (Homo sapiens, UniProt P37231); assay: TR-FRET dose response biochemical High Throughput Screening assay for agonists of the steroid receptor coactivator 3 (SRC-3) recruitment by the peroxisome proliferator-activated receptor gamma (PPAR gamma): non-selective agonists. [Related pubchem assays: 1301 (Confirmation screen.), 1048 (Primary screen.)]; type: functional
[3] = biological target: Peroxisome proliferator-activated receptor gamma/Nuclear receptor coactivator 2 (Homo sapiens, UniProt P37231); assay: TR-FRET dose response biochemical High Throughput Screening assay for agonists of the steroid receptor coactivator 2 (SRC-2) recruitment by the peroxisome proliferator-activated receptor gamma (PPAR gamma): non-selective agonists. [Related pubchem assays: 1297, 1032 ]; type: functional
[4] = biological target: T1, Ubiquitin-conjugating enzyme E2 N (Homo sapiens, UniProt P61088); type: functional;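 also: Dose-response confirmation in a TR-FRET assay detecting UBC13-driven polyubiquitin chain formation, inhibition measured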
T1 sequence (P61088 whole entry): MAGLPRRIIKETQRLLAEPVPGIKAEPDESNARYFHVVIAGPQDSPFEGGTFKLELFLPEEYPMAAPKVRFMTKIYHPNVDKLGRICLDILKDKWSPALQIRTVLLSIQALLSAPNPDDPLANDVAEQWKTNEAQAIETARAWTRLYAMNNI

[5] = biological target: DNA damage-inducible transcript 3 protein (Mus musculus, UniProt P35639); type: functional, Cricetulus griseus
[6] = biological target: T2, X-box-binding protein 1 (Homo sapiens, UniProt P17861); type: functional, Cricetulus griseus;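 also: confirmatory dose-response counter-screen serving a CHOP assay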
T2 sequence (P17861 whole entry): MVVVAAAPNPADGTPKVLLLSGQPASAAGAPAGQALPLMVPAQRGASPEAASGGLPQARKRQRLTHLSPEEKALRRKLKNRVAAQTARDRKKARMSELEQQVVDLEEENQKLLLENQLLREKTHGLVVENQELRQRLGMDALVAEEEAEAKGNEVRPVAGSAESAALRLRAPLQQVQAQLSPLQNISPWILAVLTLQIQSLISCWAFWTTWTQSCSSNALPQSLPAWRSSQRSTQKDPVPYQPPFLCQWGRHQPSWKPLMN

[7] = biological target: Troponin, cardiac muscle (Homo sapiens, UniProt P19429+P45379+P63316); assay: Fluorescence-based biochemical high throughput dose response assay for activators of the calcium sensitivity of cardiac Regulated Thin Filaments (RTF). [Related pubchem assays (depositor defined):AID493008, AID493018, AID504382, AID504383]; type: protein-complex assay
[8] = biological target: Intestinal-type alkaline phosphatase (Mus musculus, UniProt P24822); assay: PubChem AID 488785; type: functional
[9] = biological target: T3, Alkaline phosphatase, tissue-nonspecific isozyme (Homo sapiens, UniProt P05186); assay: TNAP enzyme inhibition by screening hits, dose response, selectivity assay for mouse IAP inhibitor project, biochemical, human TNAP, uHTS hits (AID 488906); type: functional
T3 sequence (P05186 whole entry): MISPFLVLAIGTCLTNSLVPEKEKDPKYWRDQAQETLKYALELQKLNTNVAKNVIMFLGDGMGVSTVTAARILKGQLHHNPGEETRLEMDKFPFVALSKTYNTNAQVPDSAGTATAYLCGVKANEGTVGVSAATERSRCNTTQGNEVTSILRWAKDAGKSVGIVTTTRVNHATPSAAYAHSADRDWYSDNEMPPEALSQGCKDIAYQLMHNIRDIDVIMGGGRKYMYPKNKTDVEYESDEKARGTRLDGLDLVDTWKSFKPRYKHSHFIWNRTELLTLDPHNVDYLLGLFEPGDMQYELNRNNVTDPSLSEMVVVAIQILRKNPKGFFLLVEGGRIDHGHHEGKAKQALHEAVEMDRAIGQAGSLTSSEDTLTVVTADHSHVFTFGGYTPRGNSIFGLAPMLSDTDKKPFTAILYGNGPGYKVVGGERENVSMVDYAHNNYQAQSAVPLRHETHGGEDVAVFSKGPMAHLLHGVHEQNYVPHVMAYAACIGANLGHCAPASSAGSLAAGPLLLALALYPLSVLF

[10] = biological target: Intestinal-type alkaline phosphatase (Homo sapiens, UniProt P09923); assay: inhibition of human intestinal alkaline phosphatase – biochemical, dose response (AID 488876); type: functional
[11] = biological target: T4, RNA-binding protein pos-1 (Caenorhabditis elegans, UniProt G5EF15); assay: inhibitors of POS-1/mex-3 RNA binding, dose response, biochemical, fluorescence polarization (AID 1964);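 also: purified POS-1 fused to maltose binding protein made in E. coli; potency of compounds blocking POS-1 binding to fluorescent RNA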
T4 sequence (G5EF15 whole entry): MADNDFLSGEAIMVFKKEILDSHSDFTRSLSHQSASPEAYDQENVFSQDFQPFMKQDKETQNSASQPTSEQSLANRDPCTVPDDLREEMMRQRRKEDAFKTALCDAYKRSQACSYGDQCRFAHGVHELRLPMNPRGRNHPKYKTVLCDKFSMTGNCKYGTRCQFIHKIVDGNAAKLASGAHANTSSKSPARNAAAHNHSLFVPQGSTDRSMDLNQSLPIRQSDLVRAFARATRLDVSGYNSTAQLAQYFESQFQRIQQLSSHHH

[12] = biological target: T5, Zinc finger protein mex-5 (Caenorhabditis elegans, UniProt Q9XUB2); assay: MEX-5/TCR-2 RNA interaction inhibitors, dose response, biochemical, C. elegans, fluorescence polarization (AID 1960)
T5 sequence (Q9XUB2 whole entry): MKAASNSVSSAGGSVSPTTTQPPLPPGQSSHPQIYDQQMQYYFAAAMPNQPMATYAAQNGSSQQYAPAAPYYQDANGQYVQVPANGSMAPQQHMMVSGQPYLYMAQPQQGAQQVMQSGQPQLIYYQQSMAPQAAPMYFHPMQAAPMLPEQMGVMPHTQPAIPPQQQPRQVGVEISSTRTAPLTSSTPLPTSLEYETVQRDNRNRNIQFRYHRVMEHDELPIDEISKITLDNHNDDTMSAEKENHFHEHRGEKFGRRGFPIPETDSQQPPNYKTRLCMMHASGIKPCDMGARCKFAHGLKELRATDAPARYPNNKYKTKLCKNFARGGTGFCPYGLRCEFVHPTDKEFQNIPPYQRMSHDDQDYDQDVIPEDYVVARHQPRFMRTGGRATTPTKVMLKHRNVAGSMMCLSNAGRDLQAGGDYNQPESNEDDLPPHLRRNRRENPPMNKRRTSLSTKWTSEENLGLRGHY

[13] = biological target: Luciferin 4-monooxygenase (Photinus pyralis, UniProt P08659); assay: firefly luciferase enzyme inhibitors, dose response, biochemical, luminescence (AID 1891)
[14] = Luminescence Cell-Based Dose Confirmation HTS to Identify Inhibitors of Platelet Dense Granule Release. [Related pubchem assays: 1663 (Primary HTS), 1678 (Summary of Project)]; type: functional
[15] = biological target: T6, Endoribonuclease toxin MazF (Escherichia coli K-12, UniProt P0AE70); assay: MazF toxin RNase activators, dose response, biochemical, fluorescence, single-stranded RNA substrate, uHTS hits (AID 588481); type: functional
T6 sequence (P0AE70 whole entry): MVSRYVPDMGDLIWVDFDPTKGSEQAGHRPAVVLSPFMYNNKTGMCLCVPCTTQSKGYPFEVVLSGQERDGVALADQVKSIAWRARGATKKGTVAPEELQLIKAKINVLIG

[16] = biological target: T6, Endoribonuclease toxin MazF; assay: fluorescent RNA oligo signal without MazF, dose response, counter-screen for MazEF activator project, biochemical, fluorescence, single-stranded RNase substrate (AID 588502); type: functional
[17] = biological target: T7, Dual specificity protein phosphatase 3 (Homo sapiens, UniProt P51452); assay: VHR1 phosphatase inhibitors, primary screen, biochemical, absorbance, uHTS (AID 1654)
[18] = biological target: T7, Dual specificity protein phosphatase 3; assay: VHR1 phosphatase inhibitors, biochemical (AID 1878)
[19] = biological target: T8, Dual specificity protein phosphatase 6 (Rattus norvegicus, UniProt Q64346); assay: MKP-3 phosphatase inhibitors, primary screen, biochemical, rat enzyme, in vitro (AID 425)
T8 sequence (Q64346 whole entry): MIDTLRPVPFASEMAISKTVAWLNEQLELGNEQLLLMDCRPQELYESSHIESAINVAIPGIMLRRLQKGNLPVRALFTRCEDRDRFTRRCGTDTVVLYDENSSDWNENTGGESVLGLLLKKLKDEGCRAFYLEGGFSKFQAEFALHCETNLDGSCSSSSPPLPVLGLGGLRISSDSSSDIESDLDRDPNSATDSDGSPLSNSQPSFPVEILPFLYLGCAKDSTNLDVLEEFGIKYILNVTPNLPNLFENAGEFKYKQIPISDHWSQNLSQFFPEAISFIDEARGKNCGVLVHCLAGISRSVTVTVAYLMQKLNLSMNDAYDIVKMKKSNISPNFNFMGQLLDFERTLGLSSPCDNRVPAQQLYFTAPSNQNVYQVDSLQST

[20] = biological target: T9, Tyrosine-protein phosphatase non-receptor type 11 (Homo sapiens, UniProt Q06124); assay: SHP2 phosphatase inhibition, dose response, selectivity assay for STEP inhibitor project, biochemical (AID 602367); type: functional; conditions: read-out: IC50_Mean
T9 sequence (Q06124 whole entry): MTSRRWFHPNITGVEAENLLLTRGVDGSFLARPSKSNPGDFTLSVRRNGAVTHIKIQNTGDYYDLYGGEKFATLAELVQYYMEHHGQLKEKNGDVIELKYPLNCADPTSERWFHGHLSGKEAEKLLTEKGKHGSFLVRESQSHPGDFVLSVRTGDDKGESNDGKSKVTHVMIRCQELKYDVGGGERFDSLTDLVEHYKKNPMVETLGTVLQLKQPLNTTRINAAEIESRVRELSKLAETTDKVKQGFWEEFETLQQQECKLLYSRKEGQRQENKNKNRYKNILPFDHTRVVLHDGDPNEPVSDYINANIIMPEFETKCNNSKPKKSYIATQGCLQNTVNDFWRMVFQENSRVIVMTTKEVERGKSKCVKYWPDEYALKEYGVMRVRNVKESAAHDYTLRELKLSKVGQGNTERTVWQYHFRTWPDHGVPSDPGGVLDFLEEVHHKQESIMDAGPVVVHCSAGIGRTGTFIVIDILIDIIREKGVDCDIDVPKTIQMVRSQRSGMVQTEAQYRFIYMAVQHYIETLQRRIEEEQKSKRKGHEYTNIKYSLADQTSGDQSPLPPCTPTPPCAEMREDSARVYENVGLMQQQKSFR

[21] = biological target: T10, Tyrosine-protein phosphatase non-receptor type 5 (Homo sapiens, UniProt P54829); assay: STEP phosphatase inhibitors, confirmation, biochemical, fluorescence intensity, uHTS hits (AID 602372); type: functional; conditions: read-out: IC50_Mean
T10 sequence (P54829 whole entry): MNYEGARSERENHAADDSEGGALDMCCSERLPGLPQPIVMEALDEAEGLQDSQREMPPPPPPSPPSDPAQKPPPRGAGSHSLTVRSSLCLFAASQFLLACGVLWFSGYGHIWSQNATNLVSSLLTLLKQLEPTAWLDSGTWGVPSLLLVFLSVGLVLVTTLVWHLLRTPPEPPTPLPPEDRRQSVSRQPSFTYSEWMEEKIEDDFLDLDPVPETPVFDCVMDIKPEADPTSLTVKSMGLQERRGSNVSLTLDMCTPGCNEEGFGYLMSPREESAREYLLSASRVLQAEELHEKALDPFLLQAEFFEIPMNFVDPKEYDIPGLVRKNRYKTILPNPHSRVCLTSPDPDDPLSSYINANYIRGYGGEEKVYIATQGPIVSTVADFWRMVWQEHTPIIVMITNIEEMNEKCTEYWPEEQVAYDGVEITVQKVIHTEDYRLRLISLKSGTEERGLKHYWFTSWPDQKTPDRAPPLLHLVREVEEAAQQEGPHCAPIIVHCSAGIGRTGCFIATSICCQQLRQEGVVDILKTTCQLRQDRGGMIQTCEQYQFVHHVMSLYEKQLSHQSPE

[22] = biological target: T7, Dual specificity protein phosphatase 3; assay: VHR phosphatase inhibition, dose response, selectivity assay for STEP inhibitor project, biochemical (AID 602374); type: functional; conditions: read-out: IC50_Mean
[23] = biological target: Nonstructural protein 1 (Influenza A virus, UniProt Q194T2); type: functional, Influenza A virus (A/California/07/2009(H1N1))

COc1ccc(-c2c3c(nc4sc(C(=O)Nc5ccccc5)c(N)c24)CCC3)cc1
EC50 [1]: > 79.4 µM (inactive)
EC50 [2]: > 79.4 µM (not active)
EC50 [3]: > 79.4 µM (not active)
IC50 [4]: > 20 µM (inactive)

Cn1nc(-c2ccccc2)cc1NC(=O)Nc1ccc(C(C)(C)C)cc1
Absolute IC50 (CHOP) [5]: 10 µM
Absolute IC50 (XBP1) [6]: 10 µM

N#C/C(=C\c1c[nH]c2ccccc12)C(=O)Nc1ncc(Cc2ccc(Cl)cc2Cl)s1
EC50 [7]: > 71.5 µM (inactive)

COc1cccc(NC(=O)CN(C)S(=O)(=O)c2ccc3nc(O)oc3c2)c1
IC50 [8]: 4.03 µM (active)
IC50 [9]: > 100 µM (inactive)
IC50 [10]: > 100 µM (inactive)

Cc1nnc(N2C(=O)C(O)=C(C(=O)c3ccco3)C2c2ccc(C(C)(C)C)cc2)s1 (stereo not given)
EC50 [11]: 24.9 µM (active)
EC50 [1]: > 2.94 µM (inactive)
EC50 [2]: > 79.4 µM (not active)
EC50 [12]: 7.86 µM (active)
EC50 [13]: > 112 µM (not active)
EC50 [14]: > 112 µM (not active)
EC50 [3]: 28.3 µM (not active)
EC50 [15]: > 99 µM (inactive)
EC50 [16]: 19.7 µM (active)

NC(=O)C1(N2CCCCC2)CCN(C(=S)Nc2ccc(S(N)(=O)=O)cc2)CC1
IC50 [17]: 1.86 µM (active)
IC50 [18]: 3.38 µM (active)
IC50 [19]: > 158 µM (not active)
IC50 [20]: 2 µM (active)
IC50 [21]: 11.6 µM (active)
IC50 [22]: 0.811 µM (active)

Cc1cc(C)cc(NC(=S)NC2CC3CCCC(C2)N3Cc2cccs2)c1 (stereo not given)
IC50 [8]: 2.17 µM (active)
IC50 [23]: > 100 µM (active)
IC50 [9]: 12.9 µM (active)
IC50 [10]: 4.06 µM (active)

Cc1ccc(NC(=O)CN(C)c2ccc(S(=O)(=O)N3CCCC3)cn2)cc1
EC50 [7]: > 71.5 µM (inactive)
